Assay results reported in the supplement of paper PMC10307832.

What was measured:
Test in all cases: relative viability (nuclei count vs DMSO), 5 days (fraction); higher = more cells survive
Venetoclax + Palbociclib = compound: CC1(C)CCC(CN2CCN(c3ccc(C(=O)NS(=O)(=O)c4ccc(NCC5CCOCC5)c([N+](=O)[O-])c4)c(Oc4cnc5[nH]ccc5c4)c3)CC2)=C(c2ccc(Cl)cc2)C1 [Venetoclax] + CC(=O)c1c(C)c2cnc(Nc3ccc(N4CCNCC4)cn3)nc2n(C2CCCC2)c1=O [Palbociclib] (partner 0.5 µM)
How it was run: (§1)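 Lung cancer cell lines in 1536-well plates got either a single drug or a fixed anchor-drug dose together with five library-drug doses (not always all listed) in √10 steps, by pin tool, on the day after seeding. Nuclei were counted after 5 days, and relative viability is the treated-to-vehicle ratio of nuclei counts. Values are medians of duplicate plates.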

Venetoclax + AZD7762 = compound: CC1(C)CCC(CN2CCN(c3ccc(C(=O)NS(=O)(=O)c4ccc(NCC5CCOCC5)c([N+](=O)[O-])c4)c(Oc4cnc5[nH]ccc5c4)c3)CC2)=C(c2ccc(Cl)cc2)C1 [Venetoclax] + NC(=O)Nc1cc(-c2cccc(F)c2)sc1C(=O)N[C@H]1CCCNC1 [AZD7762] (partner 0.2 µM)
How it was run: as §1

Selumetinib + Crizotinib = compound: Cn1cnc2c(F)c(Nc3ccc(Br)cc3Cl)c(C(=O)NOCCO)cc21 [Selumetinib] + C[C@@H](Oc1cc(-c2cnn(C3CCNCC3)c2)cnc1N)c1c(Cl)ccc(F)c1Cl [Crizotinib] (partner 1 µM)
How it was run: as §1

Selumetinib + Decitabine = compound: Cn1cnc2c(F)c(Nc3ccc(Br)cc3Cl)c(C(=O)NOCCO)cc21 [Selumetinib] + Nc1ncn([C@H]2C[C@H](O)[C@@H](CO)O2)c(=O)n1 [Decitabine] (partner 2 µM)
How it was run: as §1

Cell Line | relative viability (Venetoclax + Palbociclib; first compound 0.01 µM) | relative viability (Venetoclax + Palbociclib; first compound 0.03162 µM) | relative viability (Venetoclax + Palbociclib; first compound 0.1 µM) | relative viability (Venetoclax + Palbociclib; first compound 0.3162 µM) | relative viability (Venetoclax + Palbociclib; first compound 1 µM) | relative viability (Venetoclax + AZD7762; first compound 0.01 µM) | relative viability (Venetoclax + AZD7762; first compound 0.03162 µM) | relative viability (Venetoclax + AZD7762; first compound 0.1 µM) | relative viability (Venetoclax + AZD7762; first compound 0.3162 µM) | relative viability (Venetoclax + AZD7762; first compound 1 µM) | relative viability (Selumetinib + Crizotinib; first compound 0.02 µM) | relative viability (Selumetinib + Crizotinib; first compound 0.06325 µM) | relative viability (Selumetinib + Crizotinib; first compound 0.2 µM) | relative viability (Selumetinib + Crizotinib; first compound 0.6325 µM) | relative viability (Selumetinib + Decitabine; first compound 0.02 µM) | relative viability (Selumetinib + Decitabine; first compound 0.06325 µM) | relative viability (Selumetinib + Decitabine; first compound 0.2 µM) | relative viability (Selumetinib + Decitabine; first compound 0.6325 µM)
BEN | 0.519 | 0.469 | 0.49 | 0.489 | 0.498 | 0.771 | 0.746 | 0.611 | 0.836 | 0.637 | 0.773 | 0.873 | 0.834 | 0.776 | 0.704 | 0.733 | 0.714 | 0.731
EMC-BAC-2 | 0.5 | 0.555 | 0.533 | 0.541 | 0.486 | 1.11 | 1.15 | 1.07 | 1.08 | 1.03 | 0.754 | 0.719 | 0.778 | 0.834 | 0.991 | 0.976 | 0.997 | 0.942
NCI-H1299 | – | – | – | – | – | – | – | – | – | – | 1.06 | 0.961 | 0.939 | 0.84 | – | – | – | –
ABC-1 | 0.802 | 0.796 | 0.564 | 0.618 | 0.797 | 0.631 | 0.955 | 0.929 | 0.888 | 0.878 | 1.57 | 1.03 | 1.11 | 1.12 | 1.01 | 1.08 | 1.08 | 1.02
NCI-H2170 | 0.378 | 0.412 | 0.389 | 0.368 | 0.355 | 0.735 | 0.805 | 0.692 | 0.806 | 0.763 | 1.17 | 1.11 | 1.03 | 1.15 | 0.469 | 0.488 | 0.452 | 0.439
NCI-H1437 | 0.314 | 0.303 | 0.282 | 0.285 | 0.251 | 1.14 | 1.14 | 1.11 | 1.08 | 1.07 | 0.922 | 0.896 | 0.829 | 0.561 | 0.614 | 0.537 | 0.464 | 0.544
EBC-1 | – | – | – | – | – | – | – | – | – | – | 0.179 | 0.16 | 0.175 | 0.147 | – | – | – | –
NCI-H3122 | 0.249 | 0.226 | 0.185 | 0.18 | 0.204 | 1.07 | 0.997 | 0.909 | 0.954 | 1.03 | 0.238 | 0.234 | 0.23 | 0.236 | 0.401 | 0.394 | 0.401 | 0.452
NCI-H2023 | 0.382 | 0.338 | 0.349 | 0.329 | 0.33 | – | – | – | – | – | 0.649 | 0.533 | 0.431 | 0.503 | 0.232 | 0.211 | 0.209 | 0.247
NCI-H2228 | 0.708 | 0.776 | 0.566 | 0.687 | 0.746 | – | – | – | – | – | 0.527 | 0.595 | 0.351 | 0.413 | – | – | – | –
NCI-H1650 | 0.315 | 0.364 | 0.323 | 0.419 | 0.306 | – | – | – | – | – | 0.97 | 0.863 | 0.888 | 0.786 | 0.392 | 0.353 | 0.424 | 0.39
NCI-H2342 | 0.564 | 0.491 | 0.56 | 0.508 | 0.52 | 0.734 | 0.75 | 0.491 | 0.388 | 0.53 | – | – | – | – | 0.778 | 0.716 | 0.727 | 0.638
COR-L23 | 0.326 | 0.283 | 0.184 | 0.286 | 0.282 | – | – | – | – | – | 0.798 | 0.653 | 0.556 | 0.622 | 0.438 | 0.418 | 0.451 | 0.444
COR-L 105 | 0.414 | 0.399 | 0.384 | 0.365 | 0.413 | – | – | – | – | – | 0.855 | 0.689 | 0.714 | 0.635 | 0.637 | 0.507 | 0.452 | 0.45
NCI-H661 | 0.401 | 0.411 | 0.396 | 0.392 | 0.392 | – | – | – | – | – | 1.25 | 0.945 | 1.07 | 1.23 | 0.572 | 0.492 | 0.546 | 0.51
NCI-H1793 | 0.296 | 0.304 | 0.306 | 0.327 | 0.27 | 0.638 | 0.441 | 0.346 | 0.299 | 0.259 | – | – | – | – | 0.494 | 0.527 | 0.468 | 0.401
A549 | – | – | – | – | – | – | – | – | – | – | 0.715 | 0.656 | 0.495 | 0.402 | 0.305 | 0.227 | 0.198 | 0.267
NCI-H596 | – | – | – | – | – | 1.12 | 0.975 | 1.27 | 1.12 | 1.2 | 0.966 | 0.875 | 0.845 | 0.599 | 0.927 | 0.936 | 0.922 | 0.83
NCI-H1395 | 0.62 | 0.609 | 0.576 | 0.603 | 0.58 | 0.402 | 0.442 | 0.392 | 0.434 | 0.405 | – | – | – | – | 0.698 | 0.712 | 0.675 | 0.639
SW 900 | 0.506 | 0.516 | 0.497 | 0.552 | 0.498 | 0.538 | 0.696 | 0.59 | 0.715 | 0.668 | – | – | – | – | 0.43 | 0.409 | 0.441 | 0.504
NCI-H2009 | 0.264 | 0.228 | 0.258 | 0.216 | 0.203 | – | – | – | – | – | 0.765 | 0.623 | 0.53 | 0.336 | 0.354 | 0.292 | 0.35 | 0.279
NCI-H1703 | – | – | – | – | – | 0.157 | 0.136 | 0.122 | 0.129 | 0.124 | 0.664 | 0.653 | 0.647 | 0.616 | – | – | – | –
NCI-H520 | 0.236 | 0.217 | – | 0.204 | 0.201 | – | – | – | – | – | 0.791 | 0.766 | 0.764 | 0.809 | 0.551 | 0.493 | 0.523 | 0.606
NCI-H1563 | – | – | – | – | – | – | – | – | – | – | 0.858 | 0.825 | 0.865 | 0.781 | – | – | – | –
IA-LM | – | – | – | – | – | – | – | – | – | – | 0.662 | 0.54 | 0.314 | 0.335 | – | – | – | –
NCI-H1648 | – | 0.283 | 0.255 | 0.249 | 0.225 | – | 0.69 | 0.649 | 0.758 | 0.527 | – | – | – | – | – | 0.447 | 0.477 | 0.673
